This note sets out measurements from ChEMBL document CHEMBL3991601, “The target landscape of clinical kinase drugs” (Science, 2017).

Assay [1] addresses T1, Long-chain-fatty-acid--CoA ligase 5 (Homo sapiens, UniProt Q9ULC5).
T1 sequence (Q9ULC5 whole entry): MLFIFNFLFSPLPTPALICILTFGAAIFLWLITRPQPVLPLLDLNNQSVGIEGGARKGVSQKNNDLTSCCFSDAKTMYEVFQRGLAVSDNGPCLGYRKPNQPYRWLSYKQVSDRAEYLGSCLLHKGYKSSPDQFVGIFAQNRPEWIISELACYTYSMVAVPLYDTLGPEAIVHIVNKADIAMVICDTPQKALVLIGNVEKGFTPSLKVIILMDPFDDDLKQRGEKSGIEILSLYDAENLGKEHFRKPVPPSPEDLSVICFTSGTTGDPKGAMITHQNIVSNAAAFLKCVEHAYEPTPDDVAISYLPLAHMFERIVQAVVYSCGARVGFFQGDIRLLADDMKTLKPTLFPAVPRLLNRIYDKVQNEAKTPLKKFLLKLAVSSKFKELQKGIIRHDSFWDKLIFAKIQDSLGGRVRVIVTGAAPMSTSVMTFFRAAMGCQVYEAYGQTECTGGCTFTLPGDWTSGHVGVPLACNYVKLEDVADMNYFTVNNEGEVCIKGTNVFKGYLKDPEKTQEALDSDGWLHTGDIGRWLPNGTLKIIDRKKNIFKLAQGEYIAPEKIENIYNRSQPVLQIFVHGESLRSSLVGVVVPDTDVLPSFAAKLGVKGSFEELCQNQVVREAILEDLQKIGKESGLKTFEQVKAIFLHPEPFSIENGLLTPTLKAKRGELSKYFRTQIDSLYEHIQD

For assay [2], the target named is Atypical kinase COQ8A, mitochondrial (Homo sapiens, UniProt Q8NI60).
Atypical kinase COQ8A, mitochondrial, sequence (Q8NI60 whole entry): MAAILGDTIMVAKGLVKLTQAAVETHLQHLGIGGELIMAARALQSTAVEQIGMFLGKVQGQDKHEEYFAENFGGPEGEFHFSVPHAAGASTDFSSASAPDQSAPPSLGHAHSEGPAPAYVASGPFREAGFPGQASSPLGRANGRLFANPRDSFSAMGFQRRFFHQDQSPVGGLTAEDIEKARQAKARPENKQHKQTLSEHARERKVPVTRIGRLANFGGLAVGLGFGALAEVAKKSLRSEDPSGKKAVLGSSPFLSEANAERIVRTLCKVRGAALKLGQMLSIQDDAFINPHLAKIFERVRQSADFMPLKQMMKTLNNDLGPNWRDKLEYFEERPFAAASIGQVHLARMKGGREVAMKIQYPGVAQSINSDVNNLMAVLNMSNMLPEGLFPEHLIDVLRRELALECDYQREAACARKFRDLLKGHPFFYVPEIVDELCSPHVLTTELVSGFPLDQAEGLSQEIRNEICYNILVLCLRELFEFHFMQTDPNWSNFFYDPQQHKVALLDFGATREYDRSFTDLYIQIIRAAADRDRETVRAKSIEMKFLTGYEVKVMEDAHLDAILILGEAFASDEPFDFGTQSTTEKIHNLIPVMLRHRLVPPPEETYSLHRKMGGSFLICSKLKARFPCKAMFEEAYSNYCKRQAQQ
The target of assay [3] is T2, Beta-adrenergic receptor kinase 1 (Homo sapiens, UniProt P25098).
T2 sequence (P25098 whole entry): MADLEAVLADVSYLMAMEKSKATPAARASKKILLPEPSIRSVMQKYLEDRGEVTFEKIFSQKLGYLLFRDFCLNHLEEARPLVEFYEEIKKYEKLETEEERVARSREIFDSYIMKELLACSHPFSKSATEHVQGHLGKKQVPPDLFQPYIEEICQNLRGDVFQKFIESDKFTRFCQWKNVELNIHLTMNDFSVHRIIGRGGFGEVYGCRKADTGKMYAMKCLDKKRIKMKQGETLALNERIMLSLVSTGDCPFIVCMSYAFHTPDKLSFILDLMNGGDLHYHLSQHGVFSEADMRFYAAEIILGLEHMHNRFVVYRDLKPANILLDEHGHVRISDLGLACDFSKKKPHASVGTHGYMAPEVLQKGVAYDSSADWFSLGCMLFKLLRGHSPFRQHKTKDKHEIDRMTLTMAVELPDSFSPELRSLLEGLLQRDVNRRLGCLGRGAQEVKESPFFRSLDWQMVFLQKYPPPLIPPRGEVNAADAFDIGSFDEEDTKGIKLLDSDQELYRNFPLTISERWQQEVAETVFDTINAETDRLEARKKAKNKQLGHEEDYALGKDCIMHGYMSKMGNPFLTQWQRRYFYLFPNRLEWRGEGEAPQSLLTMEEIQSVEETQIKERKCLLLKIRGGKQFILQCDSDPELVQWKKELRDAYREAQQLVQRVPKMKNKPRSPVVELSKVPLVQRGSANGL

Assay [4] addresses Serine/threonine-protein kinase MRCK gamma (Homo sapiens, UniProt Q6DT37).
In assay [5] the target is Cyclin-dependent kinase 3 (Homo sapiens, UniProt Q00526).
Cyclin-dependent kinase 3, sequence (Q00526 whole entry): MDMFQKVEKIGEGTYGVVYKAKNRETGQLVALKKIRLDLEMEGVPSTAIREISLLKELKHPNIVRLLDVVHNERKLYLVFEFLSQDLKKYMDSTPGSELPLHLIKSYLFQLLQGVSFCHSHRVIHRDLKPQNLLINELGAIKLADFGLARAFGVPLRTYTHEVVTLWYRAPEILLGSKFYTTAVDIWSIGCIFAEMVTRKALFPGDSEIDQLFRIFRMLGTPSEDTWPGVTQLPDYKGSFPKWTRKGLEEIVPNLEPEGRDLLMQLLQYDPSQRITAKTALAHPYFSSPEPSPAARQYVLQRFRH
Assay [6] deals with Myosin light chain kinase, smooth muscle (Homo sapiens, UniProt Q15746).
Assay [7] concerns the target T3, cGMP-dependent protein kinase 1 (Homo sapiens, UniProt Q13976).
T3 sequence (Q13976 whole entry): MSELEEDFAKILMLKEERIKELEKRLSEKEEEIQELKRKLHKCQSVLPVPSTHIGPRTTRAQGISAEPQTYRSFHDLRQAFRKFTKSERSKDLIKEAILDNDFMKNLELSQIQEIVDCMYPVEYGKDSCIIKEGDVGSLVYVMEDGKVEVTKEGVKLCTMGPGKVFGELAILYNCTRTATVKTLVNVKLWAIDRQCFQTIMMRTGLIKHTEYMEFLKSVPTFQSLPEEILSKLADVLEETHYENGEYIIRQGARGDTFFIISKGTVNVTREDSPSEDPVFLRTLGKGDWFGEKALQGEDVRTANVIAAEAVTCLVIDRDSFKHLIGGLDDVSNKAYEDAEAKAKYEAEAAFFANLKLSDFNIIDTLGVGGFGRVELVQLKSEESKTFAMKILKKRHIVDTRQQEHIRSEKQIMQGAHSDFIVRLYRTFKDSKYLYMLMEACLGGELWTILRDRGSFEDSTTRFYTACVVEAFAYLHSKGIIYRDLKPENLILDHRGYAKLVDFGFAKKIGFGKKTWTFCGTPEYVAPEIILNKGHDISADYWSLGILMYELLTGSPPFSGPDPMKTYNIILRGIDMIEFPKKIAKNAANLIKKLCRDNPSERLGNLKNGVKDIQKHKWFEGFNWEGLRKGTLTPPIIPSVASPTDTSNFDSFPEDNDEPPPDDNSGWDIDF

For assay [8], the target named is Ras-related protein Rab-6A (Homo sapiens, UniProt P20340).
Ras-related protein Rab-6A, sequence (P20340 whole entry): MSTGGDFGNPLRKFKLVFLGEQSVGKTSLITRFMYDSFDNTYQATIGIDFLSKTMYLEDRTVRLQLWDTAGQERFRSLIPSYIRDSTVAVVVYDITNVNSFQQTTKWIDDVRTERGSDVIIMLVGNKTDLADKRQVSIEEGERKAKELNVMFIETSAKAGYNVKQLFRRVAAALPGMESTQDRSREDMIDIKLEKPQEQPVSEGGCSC
Assay [9] concerns the target T4, Tyrosine--tRNA ligase, cytoplasmic (Homo sapiens, UniProt P54577).
T4 sequence (P54577 whole entry): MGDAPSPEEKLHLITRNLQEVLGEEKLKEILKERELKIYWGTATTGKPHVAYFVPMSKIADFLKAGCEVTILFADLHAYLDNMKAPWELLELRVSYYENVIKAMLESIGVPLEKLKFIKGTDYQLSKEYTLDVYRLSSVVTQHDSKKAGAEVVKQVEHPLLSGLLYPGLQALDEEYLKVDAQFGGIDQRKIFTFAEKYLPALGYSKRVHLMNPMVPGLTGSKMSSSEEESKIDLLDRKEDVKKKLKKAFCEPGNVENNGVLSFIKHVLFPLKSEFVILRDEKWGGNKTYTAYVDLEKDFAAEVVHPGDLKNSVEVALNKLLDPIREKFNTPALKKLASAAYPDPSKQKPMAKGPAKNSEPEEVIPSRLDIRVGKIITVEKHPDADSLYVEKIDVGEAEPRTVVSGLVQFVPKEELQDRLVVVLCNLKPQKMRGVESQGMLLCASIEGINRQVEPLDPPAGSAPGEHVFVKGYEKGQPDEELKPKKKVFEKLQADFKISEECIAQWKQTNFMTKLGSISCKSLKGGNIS

Assay [10] addresses Fibroblast growth factor receptor 1 (Homo sapiens, UniProt P11362).
The target in the next assay is Aurora kinase B (Homo sapiens, UniProt Q96GD4).
Aurora kinase B, sequence (Q96GD4 whole entry): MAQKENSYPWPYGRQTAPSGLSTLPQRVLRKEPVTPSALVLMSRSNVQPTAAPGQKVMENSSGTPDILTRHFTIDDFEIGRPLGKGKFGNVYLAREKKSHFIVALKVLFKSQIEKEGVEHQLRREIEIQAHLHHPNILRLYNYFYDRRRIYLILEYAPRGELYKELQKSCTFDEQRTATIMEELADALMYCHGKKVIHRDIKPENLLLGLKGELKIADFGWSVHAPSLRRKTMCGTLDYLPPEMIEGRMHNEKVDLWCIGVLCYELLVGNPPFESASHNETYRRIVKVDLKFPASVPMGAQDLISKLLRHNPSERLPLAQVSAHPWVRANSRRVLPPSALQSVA

As usually defined, the Kd is the free concentration of one partner at which half of the binding sites on the other are occupied at equilibrium, for simple one-to-one binding. Usually pKd stands for the Kd on a negative log10 scale, so that one unit is a factor of ten. A higher pKd goes with a low Kd.

pKd: −log10 of the molar value. Calls of active or inactive are those of the source.
Further: in the data inactive means no Kd found up to 30 µM.

Fibroblast growth factor receptor 1, sequence (P11362 whole entry): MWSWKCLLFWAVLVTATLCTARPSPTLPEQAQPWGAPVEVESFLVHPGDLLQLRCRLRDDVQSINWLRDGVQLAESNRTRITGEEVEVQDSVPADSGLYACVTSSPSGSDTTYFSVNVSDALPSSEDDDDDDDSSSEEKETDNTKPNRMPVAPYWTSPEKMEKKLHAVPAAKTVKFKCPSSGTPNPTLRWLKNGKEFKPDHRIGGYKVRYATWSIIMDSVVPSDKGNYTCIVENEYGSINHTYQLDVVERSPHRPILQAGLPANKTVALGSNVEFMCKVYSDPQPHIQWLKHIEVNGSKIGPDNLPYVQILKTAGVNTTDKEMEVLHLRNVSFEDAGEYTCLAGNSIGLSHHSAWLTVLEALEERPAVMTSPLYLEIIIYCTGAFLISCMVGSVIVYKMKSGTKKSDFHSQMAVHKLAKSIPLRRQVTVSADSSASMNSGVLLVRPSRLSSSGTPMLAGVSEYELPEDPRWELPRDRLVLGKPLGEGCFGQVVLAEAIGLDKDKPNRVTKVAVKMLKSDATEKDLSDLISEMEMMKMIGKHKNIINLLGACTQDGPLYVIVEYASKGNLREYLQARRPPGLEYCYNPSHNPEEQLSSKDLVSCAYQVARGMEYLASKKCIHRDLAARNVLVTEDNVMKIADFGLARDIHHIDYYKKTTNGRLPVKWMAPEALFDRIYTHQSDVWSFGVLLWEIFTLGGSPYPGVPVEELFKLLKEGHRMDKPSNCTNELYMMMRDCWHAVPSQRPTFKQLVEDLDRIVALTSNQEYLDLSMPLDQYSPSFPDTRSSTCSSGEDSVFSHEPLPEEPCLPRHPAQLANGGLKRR
Serine/threonine-protein kinase MRCK gamma, sequence (Q6DT37 whole entry): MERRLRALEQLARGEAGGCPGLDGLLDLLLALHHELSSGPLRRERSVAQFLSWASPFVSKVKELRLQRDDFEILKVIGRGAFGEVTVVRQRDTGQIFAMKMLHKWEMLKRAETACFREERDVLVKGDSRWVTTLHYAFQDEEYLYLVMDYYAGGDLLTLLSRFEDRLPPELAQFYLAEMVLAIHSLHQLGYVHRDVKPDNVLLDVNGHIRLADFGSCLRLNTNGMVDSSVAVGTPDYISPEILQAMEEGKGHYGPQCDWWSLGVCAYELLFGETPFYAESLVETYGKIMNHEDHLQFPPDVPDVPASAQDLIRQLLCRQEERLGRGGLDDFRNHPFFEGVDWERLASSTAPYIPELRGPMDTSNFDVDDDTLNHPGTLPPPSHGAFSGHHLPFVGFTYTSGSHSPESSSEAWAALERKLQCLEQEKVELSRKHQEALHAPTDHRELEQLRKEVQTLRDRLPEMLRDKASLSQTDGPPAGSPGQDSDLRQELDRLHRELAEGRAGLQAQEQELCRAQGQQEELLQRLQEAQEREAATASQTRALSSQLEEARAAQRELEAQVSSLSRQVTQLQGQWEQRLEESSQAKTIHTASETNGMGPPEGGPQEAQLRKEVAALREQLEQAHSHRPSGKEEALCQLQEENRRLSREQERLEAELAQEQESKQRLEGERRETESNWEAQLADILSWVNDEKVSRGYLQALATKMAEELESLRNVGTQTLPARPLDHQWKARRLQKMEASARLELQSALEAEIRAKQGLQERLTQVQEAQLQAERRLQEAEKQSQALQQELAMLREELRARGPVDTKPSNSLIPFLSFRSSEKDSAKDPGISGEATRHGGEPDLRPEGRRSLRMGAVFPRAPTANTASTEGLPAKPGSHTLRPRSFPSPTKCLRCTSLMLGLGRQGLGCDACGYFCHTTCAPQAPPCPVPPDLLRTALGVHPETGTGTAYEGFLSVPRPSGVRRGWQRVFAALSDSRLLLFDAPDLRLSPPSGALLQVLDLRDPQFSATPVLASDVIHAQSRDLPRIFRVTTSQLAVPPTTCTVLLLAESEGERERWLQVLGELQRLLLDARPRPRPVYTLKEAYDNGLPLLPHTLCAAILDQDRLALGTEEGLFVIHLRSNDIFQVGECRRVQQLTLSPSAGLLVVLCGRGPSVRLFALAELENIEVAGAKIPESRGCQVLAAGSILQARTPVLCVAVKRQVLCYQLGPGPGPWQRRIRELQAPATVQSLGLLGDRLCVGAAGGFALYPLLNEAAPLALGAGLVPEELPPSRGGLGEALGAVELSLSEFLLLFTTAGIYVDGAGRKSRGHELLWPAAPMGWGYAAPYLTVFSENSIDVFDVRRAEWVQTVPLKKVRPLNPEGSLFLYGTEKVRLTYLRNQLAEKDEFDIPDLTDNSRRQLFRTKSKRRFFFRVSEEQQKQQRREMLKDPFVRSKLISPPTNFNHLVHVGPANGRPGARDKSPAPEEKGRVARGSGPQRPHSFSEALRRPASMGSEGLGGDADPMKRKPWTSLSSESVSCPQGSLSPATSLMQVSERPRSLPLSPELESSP

Take `CCN(CCCOc1ccc2c(Nc3cc(CC(=O)Nc4cccc(F)c4)n[nH]3)ncnc2c1)CCOP(=O)(O)O` [BARASERTIB]: the Kd in assay [1], in assay [2], in assay [3], in assay [4], in assay [5] and in assay [6] was > 30 µM (inactive) each time. For the same compound, the Kd in assay [7] and in [9] was > 30 µM (inactive) throughout. Moreover, the pKd in assay [8] was 7.48.
On to `C=CCn1c(=O)c2cnc(Nc3ccc(N4CCN(C)CC4)cc3)nc2n1-c1cccc(C(C)(C)O)n1` [ADAVOSERTIB], for which the Kd in assay [1], in assay [2], in [3], in [4], in assay [5] and in [6] was > 30 µM (inactive) each time. Moreover, the Kd in assay [7], in assay [8] and in assay [9] was > 30 µM (inactive) throughout.
For `COc1cc2nccc(Oc3ccc(NC(=O)C4(C(=O)Nc5ccc(F)cc5)CC4)cc3)c2cc1OC` [CABOZANTINIB], the Kd in [1], in assay [2], in assay [3], in assay [4], in [5] and in assay [10] was > 30 µM (inactive) each time. For the same compound, the Kd in assay [6], in assay [7], in [8] and in assay [9] was > 30 µM (inactive) each time.
Consider `COc1cc2c(N3CCN(C(=O)Nc4ccc(OC(C)C)cc4)CC3)ncnc2cc1OCCCN1CCCCC1` [TANDUTINIB], for which the Kd in [1], in assay [3], in assay [8] and in assay [9] was > 30 µM (inactive) each time.
Compound `COc1cc2c(Oc3ccc4[nH]c(C)cc4c3F)ncnc2cc1OCCCN1CCCC1` [CEDIRANIB] had a pKd in [1] of 8.10. For the same compound, the Kd in assay [3], in [8] and in [9] was > 30 µM (inactive) in each case.
On to `Cn1cnc2c(F)c(Nc3ccc(Br)cc3Cl)c(C(=O)NOCCO)cc21` [SELUMETINIB], for which the Kd in assay [1], in [3], in assay [8] and in assay [9] was > 30 µM (inactive) throughout.
In the case of `CN(C)C/C=C/C(=O)Nc1cc2c(Nc3ccc(F)c(Cl)c3)ncnc2cc1O[C@H]1CCOC1` [AFATINIB], the Kd in assay [1], in [3], in [8] and in assay [9] was > 30 µM (inactive) each time.
As to `CC1(C)CNc2cc(NC(=O)c3cccnc3NCc3ccncc3)ccc21` [MOTESANIB], the Kd in assay [1], in [3], in [8] and in assay [9] was > 30 µM (inactive) each time.
With `C=CC(=O)Nc1cccc(Nc2nc(Nc3ccc(N4CCN(C(C)=O)CC4)cc3OC)ncc2C(F)(F)F)c1` [ROCILETINIB], the Kd (in assay [2]; in [3]; on Aurora kinase B; in assay [4]; in assay [5]; in [10]) was > 30 µM (inactive) throughout. Further, the Kd in assay [6], in [7], in [8] and in assay [9] was > 30 µM (inactive) each time.
Take `C=CC(=O)Nc1cc(Nc2nccc(-c3cn(C)c4ccccc34)n2)c(OC)cc1N(C)CCN(C)C` [OSIMERTINIB]: the Kd (in assay [2]; in assay [3]; on Aurora kinase B; in [4]; in assay [5]; in assay [10]) was > 30 µM (inactive) in each case. Moreover, the Kd in [6], in assay [7], in assay [8] and in assay [9] was > 30 µM (inactive) each time.
With `COc1cc(Nc2ncc(F)c(Nc3ccc4c(n3)N(COP(=O)(O)O)C(=O)C(C)(C)O4)n2)cc(OC)c1OC` [FOSTAMATINIB], the Kd in assay [1], in [2], in [3], in assay [4], in assay [5] and in assay [10] was > 30 µM (inactive) each time. Also, the Kd in assay [6], in [7], in [8] and in [9] was > 30 µM (inactive) throughout.
Regarding `O=S(=O)(c1cccc2cnccc12)N1CCCNCC1` [FASUDIL], the Kd in assay [1], in assay [2], in [3], in [4], in [5] and in assay [6] was > 30 µM (inactive) each time. The Kd in assay [8] and in assay [9] was > 30 µM (inactive) in each case.
In the case of `Cn1c(=O)n(-c2ccc(C(C)(C)C#N)cc2)c2c3cc(-c4cnc5ccccc5c4)ccc3ncc21` [DACTOLISIB], the Kd in assay [1], in assay [2], in assay [3], in assay [4], in assay [5] and in [6] was > 30 µM (inactive) in each case. Further, the Kd in assay [7], in [8] and in assay [9] was > 30 µM (inactive) in each case.
